Test results taken from the NIST ThermoML archive (doi:10.1021/je200195q).
± gives the expanded uncertainty stated by the source.

Test: activity coefficient (dimensionless); of the first substance listed, at infinite dilution; xn = mol fraction of the nth substance listed
Conditions: 101 kPa, Liquid, Chromatography, x1 = 0

CCCCCC [hexane] + CCCCCC[n+]1ccn(C)c1.FC(F)(F)C(F)(F)[P-](F)(F)(F)(C(F)(F)C(F)(F)F)C(F)(F)C(F)(F)F showed an activity coefficient (312.8 K) of 6.39 ± 0.44, an activity coefficient (332.85 K) of 5.69 ± 0.39 and an activity coefficient (354.65 K) of 4.41 ± 0.3.
OCC(F)(F)F [2,2,2-trifluoroethanol] + CCCCCCCCCCn1cc[n+](CCCCCCCCCC)c1C.O=S(=O)([N-]S(=O)(=O)C(F)(F)F)C(F)(F)F gave an activity coefficient (323.1 K) of 0.399 ± 0.034, an activity coefficient (333.15 K) of 0.379 ± 0.033 and an activity coefficient (343.15 K) of 0.355 ± 0.032.
C=CCCCC [hex-1-ene] + CCCCn1cc[n+](C)c1.O=S(=O)([N-]S(=O)(=O)C(F)(F)C(F)(F)F)C(F)(F)C(F)(F)F showed an activity coefficient (322.55 K) of 6.07 ± 0.41, an activity coefficient (342.75 K) of 5.55 ± 0.38 and an activity coefficient (362.65 K) of 5.24 ± 0.36.
Compound C#CCCCCC [1-heptyne] + CCCCCC[n+]1ccn(C)c1.FC(F)(F)C(F)(F)[P-](F)(F)(F)(C(F)(F)C(F)(F)F)C(F)(F)C(F)(F)F has an activity coefficient (312.8 K) of 2.54 ± 0.17, an activity coefficient (332.85 K) of 2.5 ± 0.17 and an activity coefficient (354.65 K) of 2.32 ± 0.16.
For C1COCCO1 [1,4-dioxane] + CCCCCC[n+]1ccn(C)c1.FC(F)(F)C(F)(F)[P-](F)(F)(F)(C(F)(F)C(F)(F)F)C(F)(F)C(F)(F)F, the activity coefficient (312.8 K) was 0.273 ± 0.03, the activity coefficient (332.85 K) was 0.327 ± 0.032 and the activity coefficient (354.65 K) was 0.339 ± 0.032.
C=O [methanal] + CCCCCCCCCCn1cc[n+](CCCCCCCCCC)c1C.O=S(=O)([N-]S(=O)(=O)C(F)(F)F)C(F)(F)F showed an activity coefficient (323.1 K) of 0.074 ± 0.03, an activity coefficient (333.15 K) of 0.08 ± 0.03 and an activity coefficient (343.15 K) of 0.085 ± 0.03.
Compound CO [methanol] + CCCCCC[n+]1ccn(C)c1.FC(F)(F)C(F)(F)[P-](F)(F)(F)(C(F)(F)C(F)(F)F)C(F)(F)C(F)(F)F has an activity coefficient (312.8 K) of 1.57 ± 0.1, an activity coefficient (332.85 K) of 2.01 ± 0.14 and an activity coefficient (354.65 K) of 1.58 ± 0.1.
In the case of ClC(Cl)Cl [trichloromethane] + CCn1cc[n+](C)c1.CS(=O)(=O)[O-], the activity coefficient (312.55 K) is reported as 0.563 ± 0.04, the activity coefficient (322.45 K) is reported as 0.479 ± 0.037 and the activity coefficient (332.45 K) is reported as 1.42 ± 0.093.
In the case of CCC(=O)CC [pentan-3-one] + CCCCn1cc[n+](C)c1.O=S(=O)([N-]S(=O)(=O)C(F)(F)C(F)(F)F)C(F)(F)C(F)(F)F, the activity coefficient (322.55 K) is reported as 0.624 ± 0.043, the activity coefficient (342.75 K) is reported as 0.656 ± 0.045 and the activity coefficient (362.65 K) is reported as 0.695 ± 0.047.
Compound C1CCCCCC1 [cycloheptane] + CCCCCCCCCCn1cc[n+](CCCCCCCCCC)c1C.O=S(=O)([N-]S(=O)(=O)C(F)(F)F)C(F)(F)F has an activity coefficient (323.1 K) of 3.17 ± 0.22, an activity coefficient (333.15 K) of 4.46 ± 0.3 and an activity coefficient (343.15 K) of 6.09 ± 0.41.
For C#CCCCC [1-hexyne] + CCCCCC[n+]1ccn(C)c1.FC(F)(F)C(F)(F)[P-](F)(F)(F)(C(F)(F)C(F)(F)F)C(F)(F)C(F)(F)F, the activity coefficient (312.8 K) was 1.94 ± 0.13, the activity coefficient (332.85 K) was 1.89 ± 0.13 and the activity coefficient (354.65 K) was 1.75 ± 0.12.
With CCCCCCCCCC [decane] + CCCCCC[n+]1ccn(C)c1.FC(F)(F)C(F)(F)[P-](F)(F)(F)(C(F)(F)C(F)(F)F)C(F)(F)C(F)(F)F the activity coefficient (312.8 K) was 22.7 ± 1.6, the activity coefficient (332.85 K) was 19 ± 1.3 and the activity coefficient (354.65 K) was 15.3 ± 1.
Compound CCCCCC [hexane] + CCn1cc[n+](C)c1.CS(=O)(=O)[O-] has an activity coefficient (312.55 K) of 207 ± 14, an activity coefficient (322.45 K) of 190 ± 13 and an activity coefficient (332.45 K) of 152 ± 10.
With CCCCCCCCCC [decane] + CCCCn1cc[n+](C)c1.O=S(=O)([N-]S(=O)(=O)C(F)(F)C(F)(F)F)C(F)(F)C(F)(F)F the activity coefficient (322.55 K) was 37.4 ± 2.6, the activity coefficient (342.75 K) was 33.3 ± 2.3 and the activity coefficient (362.65 K) was 28 ± 1.9.
For CCCCCCCCC [nonane] + CCCCCC[n+]1ccn(C)c1.FC(F)(F)C(F)(F)[P-](F)(F)(F)(C(F)(F)C(F)(F)F)C(F)(F)C(F)(F)F, the activity coefficient (312.8 K) was 17.7 ± 1.2, the activity coefficient (332.85 K) was 15.5 ± 1.1 and the activity coefficient (354.65 K) was 12.4 ± 0.85.
Work on CCCC(C)=O [pentan-2-one] + CCCCCCCCCCn1cc[n+](CCCCCCCCCC)c1C.O=S(=O)([N-]S(=O)(=O)C(F)(F)F)C(F)(F)F yielded an activity coefficient (323.1 K) of 0.397 ± 0.034, an activity coefficient (333.15 K) of 0.404 ± 0.034 and an activity coefficient (343.15 K) of 0.407 ± 0.034.
Work on CCCO [propan-1-ol] + CCn1cc[n+](C)c1.CS(=O)(=O)[O-] yielded an activity coefficient (312.55 K) of 0.742 ± 0.049, an activity coefficient (322.45 K) of 0.734 ± 0.049 and an activity coefficient (332.45 K) of 0.722 ± 0.048.
In the case of CCN(CC)CC [triethylamine] + CCCCCCCCCCn1cc[n+](CCCCCCCCCC)c1C.O=S(=O)([N-]S(=O)(=O)C(F)(F)F)C(F)(F)F, the activity coefficient (323.1 K) is reported as 3.67 ± 0.25, the activity coefficient (333.15 K) is reported as 3.17 ± 0.22 and the activity coefficient (343.15 K) is reported as 2.86 ± 0.2.
With CCOCC [diethyl ether] + CCCCCCCCCCn1cc[n+](CCCCCCCCCC)c1C.O=S(=O)([N-]S(=O)(=O)C(F)(F)F)C(F)(F)F the activity coefficient (323.1 K) was 0.746 ± 0.049, the activity coefficient (333.15 K) was 0.771 ± 0.05 and the activity coefficient (343.15 K) was 0.773 ± 0.051.
For ClC(Cl)Cl [trichloromethane] + CCCCn1cc[n+](C)c1.O=S(=O)([N-]S(=O)(=O)C(F)(F)C(F)(F)F)C(F)(F)C(F)(F)F, the activity coefficient (322.55 K) was 0.613 ± 0.043, the activity coefficient (342.75 K) was 0.74 ± 0.049 and the activity coefficient (362.65 K) was 0.79 ± 0.051.
